The target in this test is T1, GPCR GPR40 (Homo sapiens, UniProt O14842).
T1 construct: expressed in transfected cells; host or cells: HEK293
The test can be described thus: In-vitro FLIPR assay with recombinant cells which express the GPCR GPR40. Conditions: intracellular Ca2+ in recombinant HEK293 cells expressing GPR40, 100% = 10 μM linoleic acid. The test is classed as cell-based. As for the experimental part: In-Vitro FLIPR Assay with Recombinant Cells which Express the GPCR GPR40
Function-testing assays were carried out by means of the FLIPR technique (“fluorescence imaging plate reader”, Molecular Devices Corp.). For this purpose, agonist-induced alterations in the intracellular concentration of Ca^2+ in recombinant HEK293 cells which express the GPCR GPR40 were determined.
For the investigations, cells were seeded in 96-well microtiter plates (60 000 cells/well) and left to grow overnight. The medium was removed and the cells were incubated in buffer which contained the fluorescent dye Fluo-4. After this loading with dye, the cells were washed, test substance was added and alterations in the intracellular Ca^2+ concentration were measured in the FLIPR instrument. Results have been depicted as percentage alteration relative to the control (0%: no test substance added; 100%: 10 μM reference agonist linoleic acid added) used to calculate dose/activity plots and EC50 values were determined.

From patent publication US8518875B2, “(Carboxylalkylenephenyl)phenyloxamides, method for the production thereof and use of same as a medicament” (SANOFI, priority 2007, dated 2013) come the findings set out here.

pEC50: −log10 of the molar value.

T1 sequence (O14842 whole entry): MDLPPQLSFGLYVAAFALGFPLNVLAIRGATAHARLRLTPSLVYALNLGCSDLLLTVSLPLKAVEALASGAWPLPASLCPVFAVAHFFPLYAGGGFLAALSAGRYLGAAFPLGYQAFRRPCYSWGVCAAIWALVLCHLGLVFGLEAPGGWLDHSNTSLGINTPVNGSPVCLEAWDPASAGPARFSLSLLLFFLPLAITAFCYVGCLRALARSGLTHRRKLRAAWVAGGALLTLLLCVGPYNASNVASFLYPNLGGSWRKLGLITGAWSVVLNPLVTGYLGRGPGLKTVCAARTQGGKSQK

A word on the pEC50: it is the EC50 on a negative log10 scale, so that one unit is a factor of ten. For the molecule `O=C(O)CCc1ccc(NC(=O)C(=O)Nc2cc(C(F)(F)F)ccc2Br)cc1` [compound 11], the pEC50 was 6.10. With `O=C(O)CCc1ccc(NC(=O)C(=O)Nc2ccc(Cl)cc2Cl)cc1` [compound 7], the pEC50 was 6.15. With `O=C(O)CCc1ccc(NC(=O)C(=O)Nc2ccc(Br)cc2Cl)cc1` [compound 14] the figure was 6.22; with `CC(C)c1ccc(NC(=O)C(=O)Nc2ccc(CCC(=O)O)cc2)c(C(F)(F)F)c1` [compound 9], 7.00. With `O=C(O)CCc1cccc(NC(=O)C(=O)Nc2c(Cl)c(Cl)cc(Cl)c2Cl)c1` [compound 24], the pEC50 is 4.22. Consider `CC(C)c1ccc(NC(=O)C(=O)Nc2cccc(CCC(=O)O)c2)c(Br)c1` [compound 21], for which the pEC50 was 4.77.
